Consider four compounds from ChEMBL document CHEMBL1148430, “Synthesis of novel 2-nitroimidazole-tethered tricyclic quinolines, bearing a second heteroatom, and their in vitro evaluation as hypoxia-selective cytotoxins and radiosensitizers” (Bioorg Med Chem Lett, 2004).

A short description of data set [1]: Partition coefficient in octanol/water. It counts as physicochemical.
The subject of data set [2] is V79. The data set can be described thus: Cytotoxicity of compound was measured against suspended V79 cells under aerobic conditions in clonogenic assay. The class given is functional, Cricetulus griseus.
Data set [3] is described as follows: In vitro therapeutic index of compound was measured inV79 cells. The class given is cell-based, Cricetulus griseus. The conditions noted are these: chinese hamster, V79 cells; read-out: T.I.
Data set [4] is described as follows: Concentration required to reduce fluorescence in ethidium bromide displacement assay using EB-DNA complex.
Data set [5] can be described thus: Ratio (HS) of CT50 values in aerobic condition to hypoxic condition (in N2 presence) given as CT50(A)/CT50(H). The class given is functional.
For data set [6], the system named is V79. The experiment in a line: Cytotoxicity of compound was measured against suspended V79 cells under hypoxic conditions in clonogenic assay. It counts as functional, Cricetulus griseus.

In data set [1], `CN1CCc2nc3ccccc3c(NCCCn3ccnc3[N+](=O)[O-])c2C1.Cl` registered a PC of 0.41. Further, the CT50 with V79 [2] stood at 426 µM. The selectivity ratio in data set [3] amounted to 7. In data set [4], this compound returned a C50 of 45 µM. Besides, the Ratio in data set [5] turned out to be 2.2.

In data set [1], `Cl.O=[N+]([O-])c1nccn1CCCNc1c2c(nc3ccccc13)CCCC2` displayed a PC of 0.14. Also, the CT50 in the data set with V79 [2] was determined as 360 µM; in the data set on V79 [6] it was 33 µM. Moreover, the selectivity ratio in data set [3] came to 20. In data set [4], the C50 stood at 58 µM. Besides, the Ratio in data set [5] stood at 11.

Regarding `Cl.O=[N+]([O-])c1nccn1CCCNc1c2c(nc3ccccc13)CCSC2`, the PC in data set [1] is listed as 0.4. For the same compound, the CT50 with V79 [2] is 580 µM; with V79 [6], 68 µM. In data set [3], the selectivity ratio was determined as 15. The compound further came in with a C50 in data set [4] of 58 µM. For the same compound, in data set [5], the Ratio came to 9.

In data set [1], `Cl.O=[N+]([O-])c1nccn1CCCNc1c2ccccc2nc2ccccc12` yielded a PC of 0.07. For the same compound, the CT50 in the data set with V79 [2] amounted to 84 µM; in the data set on V79 [6], 15 µM. Moreover, the selectivity ratio in data set [3] came to 11. In addition, the C50 in data set [4] is 9 µM. Moreover, the Ratio in data set [5] amounted to 5.5.
